Read-outs that look alike come from different tables or passages of the source.
Biological target: T1, mouse TMEM16A mutant G510P (Mus musculus, UniProt Q8BHY3, G510P)
T1 construct: expressed in transfected cells; host or cells: HEK293T
T1 sequence (Q8BHY3 1-960 G510P): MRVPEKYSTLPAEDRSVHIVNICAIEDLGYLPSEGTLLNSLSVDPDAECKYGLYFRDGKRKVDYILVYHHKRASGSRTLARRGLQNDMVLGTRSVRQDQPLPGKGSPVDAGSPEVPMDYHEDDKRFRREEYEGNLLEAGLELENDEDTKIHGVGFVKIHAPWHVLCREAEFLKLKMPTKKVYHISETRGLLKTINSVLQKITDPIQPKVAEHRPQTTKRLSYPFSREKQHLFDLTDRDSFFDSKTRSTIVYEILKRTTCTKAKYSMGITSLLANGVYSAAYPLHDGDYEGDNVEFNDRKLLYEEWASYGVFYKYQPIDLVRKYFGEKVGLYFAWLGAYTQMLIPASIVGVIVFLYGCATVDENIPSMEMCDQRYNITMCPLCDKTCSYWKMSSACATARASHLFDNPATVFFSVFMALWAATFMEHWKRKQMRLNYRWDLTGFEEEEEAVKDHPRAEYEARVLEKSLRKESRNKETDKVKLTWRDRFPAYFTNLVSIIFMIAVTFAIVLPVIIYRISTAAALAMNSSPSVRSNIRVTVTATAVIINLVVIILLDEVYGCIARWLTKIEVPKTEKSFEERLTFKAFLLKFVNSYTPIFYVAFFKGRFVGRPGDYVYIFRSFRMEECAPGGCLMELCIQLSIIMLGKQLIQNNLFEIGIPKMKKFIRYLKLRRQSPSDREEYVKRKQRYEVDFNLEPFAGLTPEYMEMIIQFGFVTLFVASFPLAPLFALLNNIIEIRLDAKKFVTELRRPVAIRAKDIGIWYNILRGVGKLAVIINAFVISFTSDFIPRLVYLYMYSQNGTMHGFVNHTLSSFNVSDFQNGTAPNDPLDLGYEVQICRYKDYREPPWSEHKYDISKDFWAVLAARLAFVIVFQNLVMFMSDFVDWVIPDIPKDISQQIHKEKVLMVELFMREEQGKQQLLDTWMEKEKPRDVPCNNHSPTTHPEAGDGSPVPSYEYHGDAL
Assay: Inside-out patch recording of 1PBC block, mutant G510P
Type: cell-based
Details: for remaining activity at 3 µM: 1PBC 3; for remaining activity at 3 µM / remaining activity at 10 µM / remaining activity at 30 µM / remaining activity at 100 µM: read-out: fraction of unblocked current; for remaining activity at 10 µM: 1PBC 10; for remaining activity at 30 µM: 1PBC 30; for remaining activity at 100 µM: 1PBC 100
Description: HEK293T cells (ATCC CRL-1573) were maintained in Dulbecco’s modified Eagle’s medium (DMEM; Sigma-Aldrich) supplemented with 10 U ml^−1 penicillin, 0.1 mg ml^−1 streptomycin (Sigma-Aldrich), 2 mM L-glutamine (Sigma-Aldrich), and 10% FBS (Sigma-Aldrich) in a humidified atmosphere containing 5% CO2 at 37 °C. HEK293S GnTI^− cells (ATCC CRL-3022) were maintained in HyClone HyCell TransFx-H medium (GE Healthcare) supplemented with 10 U ml^−1 penicillin, 0.1 mg ml^−1 streptomycin, 4 mM L-glutamine, 0.15% poloxamer 188 (Sigma-Aldrich), and 1% FBS in an atmosphere containing 5% CO2 at 185 rpm at 37 °C. The ac splice variant of mouse TMEM16A (UniProt ID: Q8BHY3), mouse TMEM16B (UniProt ID: Q8CFW1), or mouse TMEM16F (UniProt ID: Q6P9J9) bearing a 3C cleavage site, a Venus YFP, a Myc tag, and a Streptavidin-binding peptide (SBP) downstream of the open reading frame in a modified pcDNA3.1 vector (Invitrogen) were used as described previously[21],[31]. Mutations were introduced using a modified QuikChange method[58] and were verified by sequencing.
HEK293T cells were transfected with 3–4 μg DNA per 6 cm Petri dish using the calcium phosphate co-precipitation method and were used within 24–96 h after transfection. Recordings were performed on inside-out patches excised from HEK293T cells expressing the construct of interest. Patch pipettes were pulled from borosilicate glass capillaries (O.D. 1.5 mm, I.D. 0.86 mm, Sutter Instrument) and were fire-polished with a microforge (Narishige) before use. Pipette resistance was typically 3–8 MΩ when filled with the recording solutions detailed below. Seal resistance was typically 4 GΩ or higher. Voltage-clamp recordings were made using Axopatch 200B, Digidata 1550, and Clampex 10.7 (Molecular Devices). Analog signals were filtered with the in-built 4-pole Bessel filter at 10 kHz and were digitized at 20 kHz. Solution exchange was achieved using a gravity-fed system through a theta glass pipette mounted on an ultra-fast piezo-driven stepper (Siskiyou). […] All recordings were performed at 20 °C.
A symmetrical ionic condition was used throughout. Stock solution with Ca^2+-EGTA contained 150 mM NaCl, 5.99 mM Ca(OH)2, 5 mM EGTA, and 10 mM HEPES at pH 7.40. Stock solution with EGTA contained 150 mM NaCl, 5 mM EGTA, and 10 mM HEPES at pH 7.40. Free Ca^2+ concentrations were adjusted by mixing the stock solutions at the required ratios calculated using the WEBMAXC program (http://web.stanford.edu/~cpatton/webmaxcS.htm). Patch pipettes were filled with the stock solution with Ca^2+-EGTA, which has a free Ca^2+ concentration of 1 mM. 1PBC (ChemBridge) stock was reconstituted in anhydrous DMSO (Sigma-Aldrich) at 100 mM and stored at −20 °C. Working solutions with 1PBC were prepared by serial dilution. Unless otherwise stated, experiments were performed at a saturating Ca^2+ concentration as shown in Supplementary Table 1 and the primary data were corrected for current rundown as described previously[21],[25].
Concentration-response relations, obtained from the ratio of the I-V plots before and after the application of the blocker, were fitted to the Hill equation,1 I/Imax=1/1+IC50/[blocker]^h where I/Imax is the normalized current responses, IC50 defines the concentration at which inhibition is at its half-maximum, and h is the Hill coefficient.

N#Cc1c(C(F)(F)F)cc(O)n2c1nc1ccccc12 [1PBC] was tested, and the IC50 (0 mV, 15 µM Ca2+) was 65.7 µM, the “I/Imax_+80mV” value (3 μM 1PBC) was 0.9738 and the I/Imax_-80mV (3 μM 1PBC, -80 mV) was 0.9802. The “I/Imax_+80mV” value (10 μM 1PBC) was 0.8477, the I/Imax_-80mV (10 μM 1PBC, -80 mV) was 0.885 and the “I/Imax_+80mV” value (30 μM 1PBC) was 0.6076. The I/Imax_-80mV (30 μM 1PBC, -80 mV) was 0.6861, the “I/Imax_+80mV” value (100 μM 1PBC) was 0.3872 and the I/Imax_-80mV (100 μM 1PBC, -80 mV) was 0.4945. It also gave a remaining activity at 3 µM (0 mV) of 95.8%, a remaining activity at 3 µM (20 mV) of 95.6% and a remaining activity at 3 µM (40 mV) of 96.9%. It also gave a remaining activity at 3 µM (60 mV) of 95.5%, a remaining activity at 3 µM (80 mV) of 97.4% and a remaining activity at 3 µM (100 mV) of 99.8%. For the same compound, the remaining activity at 3 µM (120 mV) was 99.8%, the remaining activity at 3 µM (140 mV) was 104% and the remaining activity at 3 µM (-20 mV) was 96%. The remaining activity at 3 µM (-40 mV) was 97.4%, the remaining activity at 3 µM (-60 mV) was 99% and the remaining activity at 3 µM (-80 mV) was 98%. It also gave a remaining activity at 3 µM (-100 mV) of 97.4%, a remaining activity at 3 µM (-120 mV) of 96.4% and a remaining activity at 3 µM (-140 mV) of 96%. It also gave a remaining activity at 10 µM (0 mV) of 86.9%, a remaining activity at 10 µM (20 mV) of 85.8% and a remaining activity at 10 µM (40 mV) of 85%. The remaining activity at 10 µM (60 mV) was 84.7%, the remaining activity at 10 µM (80 mV) was 84.8% and the remaining activity at 10 µM (100 mV) was 86%. It also gave a remaining activity at 10 µM (120 mV) of 86.5%, a remaining activity at 10 µM (140 mV) of 87.9% and a remaining activity at 10 µM (-20 mV) of 88%. It also gave a remaining activity at 10 µM (-40 mV) of 90.2%, a remaining activity at 10 µM (-60 mV) of 89.1% and a remaining activity at 10 µM (-80 mV) of 88.5%. For the same compound, the remaining activity at 10 µM (-100 mV) was 89.4%, the remaining activity at 10 µM (-120 mV) was 88.8% and the remaining activity at 10 µM (-140 mV) was 89%. For the same compound, the remaining activity at 30 µM (0 mV) was 64.5%, the remaining activity at 30 µM (20 mV) was 64.5% and the remaining activity at 30 µM (40 mV) was 63.6%. It also gave a remaining activity at 30 µM (60 mV) of 62.9%, a remaining activity at 30 µM (80 mV) of 60.8% and a remaining activity at 30 µM (100 mV) of 62.7%. For the same compound, the remaining activity at 30 µM (120 mV) was 62.8%, the remaining activity at 30 µM (140 mV) was 65.9% and the remaining activity at 30 µM (-20 mV) was 64.6%. The remaining activity at 30 µM (-40 mV) was 66.2%, the remaining activity at 30 µM (-60 mV) was 68.7% and the remaining activity at 30 µM (-80 mV) was 68.6%. It also gave a remaining activity at 30 µM (-100 mV) of 69.3%, a remaining activity at 30 µM (-120 mV) of 71.3% and a remaining activity at 30 µM (-140 mV) of 73.4%. The remaining activity at 100 µM (0 mV) was 43.2%, the remaining activity at 100 µM (20 mV) was 42.1% and the remaining activity at 100 µM (40 mV) was 40.7%. For the same compound, the remaining activity at 100 µM (60 mV) was 40.1%, the remaining activity at 100 µM (80 mV) was 38.7% and the remaining activity at 100 µM (100 mV) was 39.6%. The remaining activity at 100 µM (120 mV) was 40.6%, the remaining activity at 100 µM (140 mV) was 42.9% and the remaining activity at 100 µM (-20 mV) was 44.4%. For the same compound, the remaining activity at 100 µM (-40 mV) was 47.1%, the remaining activity at 100 µM (-60 mV) was 49.1% and the remaining activity at 100 µM (-80 mV) was 49.4%. For the same compound, the remaining activity at 100 µM (-100 mV) was 50.5%, the remaining activity at 100 µM (-120 mV) was 52.6% and the remaining activity at 100 µM (-140 mV) was 52.8%. It also gave an IC50 (20 mV, 15 µM Ca2+) of 63.2 µM, an IC50 (40 mV, 15 µM Ca2+) of 60.2 µM and an IC50 (60 mV, 15 µM Ca2+) of 58.2 µM. The IC50 (80 mV, 15 µM Ca2+) was 54.9 µM, the IC50 (100 mV, 15 µM Ca2+) was 59.3 µM and the IC50 (120 mV, 15 µM Ca2+) was 60.9 µM. The IC50 (140 mV, 15 µM Ca2+) was 69.5 µM, the IC50 (-20 mV, 15 µM Ca2+) was 68.2 µM and the IC50 (-40 mV, 15 µM Ca2+) was 76.6 µM. For the same compound, the IC50 (-60 mV, 15 µM Ca2+) was 83.4 µM, the IC50 (-80 mV, 15 µM Ca2+) was 83.4 µM and the IC50 (-100 mV, 15 µM Ca2+) was 87.4 µM. The IC50 (-120 mV, 15 µM Ca2+) was 94.4 µM, the IC50 (-140 mV, 15 µM Ca2+) was 98.6 µM and the IC50 (G510P, V 0 mV) was 65.7 µM. The IC50 (G510P, V 20 mV) was 63.2 µM, the IC50 (G510P, V 40 mV) was 60.2 µM and the IC50 (G510P, V 60 mV) was 58.2 µM. It also gave an IC50 (G510P, V 80 mV) of 54.9 µM, an IC50 (G510P, V 100 mV) of 59.3 µM and an IC50 (G510P, V 120 mV) of 60.9 µM. The IC50 (G510P, V 140 mV) was 69.5 µM, the IC50 (G510P, V -20 mV) was 68.2 µM and the IC50 (G510P, V -40 mV) was 76.6 µM. For the same compound, the IC50 (G510P, V -60 mV) was 83.4 µM, the IC50 (G510P, V -80 mV) was 83.4 µM and the IC50 (G510P, V -100 mV) was 87.4 µM. It also gave an IC50 (G510P, V -120 mV) of 94.4 µM and an IC50 (G510P, V -140 mV) of 98.6 µM.
